Assay [1] deals with T1, KSR (Mus musculus, UniProt Q61097).
T1 sequence (Q61097 1-873): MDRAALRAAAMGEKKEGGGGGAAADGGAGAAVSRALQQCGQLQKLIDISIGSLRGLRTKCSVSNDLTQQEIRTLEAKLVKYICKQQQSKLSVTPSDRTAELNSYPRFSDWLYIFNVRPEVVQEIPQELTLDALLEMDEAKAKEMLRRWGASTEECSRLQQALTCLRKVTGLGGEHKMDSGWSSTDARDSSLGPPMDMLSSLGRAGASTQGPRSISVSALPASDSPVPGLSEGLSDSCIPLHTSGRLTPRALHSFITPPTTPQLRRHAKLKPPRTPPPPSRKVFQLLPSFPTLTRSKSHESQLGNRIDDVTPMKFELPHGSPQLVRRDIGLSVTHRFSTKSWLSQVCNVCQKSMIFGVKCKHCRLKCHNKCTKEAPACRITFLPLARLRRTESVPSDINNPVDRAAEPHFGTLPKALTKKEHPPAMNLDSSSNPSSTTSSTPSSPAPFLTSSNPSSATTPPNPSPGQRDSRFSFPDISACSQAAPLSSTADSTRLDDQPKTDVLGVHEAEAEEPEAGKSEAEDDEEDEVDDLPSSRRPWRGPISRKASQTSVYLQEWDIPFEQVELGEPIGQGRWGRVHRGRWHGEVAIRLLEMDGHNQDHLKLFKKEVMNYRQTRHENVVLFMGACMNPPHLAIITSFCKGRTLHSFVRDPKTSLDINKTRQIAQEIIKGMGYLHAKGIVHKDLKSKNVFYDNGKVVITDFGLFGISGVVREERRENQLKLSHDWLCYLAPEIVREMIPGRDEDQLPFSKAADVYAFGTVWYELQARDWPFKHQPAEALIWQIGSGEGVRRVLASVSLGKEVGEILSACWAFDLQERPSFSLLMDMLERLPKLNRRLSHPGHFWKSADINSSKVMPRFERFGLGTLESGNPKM
The assay can be described thus: KSR autophosphorylation after treatment of COS-7 cells expressing KSR. The assay is classed as cell-based, mouse (KSR expressed in COS-7 cells). The method, then:
FIG. 23A--COS-7 cells were transfected as in FIG. 22A and placed in serum-free medium. After 4 hours, cells were stimulated for 10 min with the ceramide analog, C2-ceramide (Biomol), at the concentrations indicated. Cells were lysed with NP-40 lysis buffer, and Flag-tagged KSR (0.8 mg protein for each point) was immunoprecipitated and assayed for autophosphorylation activity as described in Experimental Procedures. The autoradiogram was exposed for 1 hour. KSR is expressed at similar levels in each sample as monitored by Western blot (data not shown). Data represent one of three similar experiments.
(§1) COS-7 cells expressing Flag-tagged KSR were stimulated with 10 nM TNFα for the times indicated and lysed with NP-40 buffer as in FIG. 2A. […] The autoradiogram was exposed for 1 hour. Data represent one of three similar experiments.
KSR was immunoprecipitated as above from 0.8 mg NP-40 lysate protein with 40 μl agarose-conjugated anti-Flag antibody at 4° C. for 4 hrs or overnight. […] The reaction was stopped by addition of Laemmli sample buffer. Samples were resolved by 7.5% sodium dodecyl sulfate-polyacrylamide gel electrophoresis (SDS-PAGE) and autoradiographed.

Assay [2] deals with T1, KSR. Briefly: Phosphorylation and activation of recombinant Raf-1 by KSR immunoprecipitated from treated COS-7 cells. In kind it is cell-based, mouse (KSR expressed in COS-7 cells). The following applies: C2-ceramide 1 μM; TNFα 10 nM. On the procedure:
FIGS. 23B-23C--COS-7 cells expressing Flag-tagged KSR were stimulated with 1 μM C2-ceramide for 10 min and lysed with NP-40 buffer as in FIG. 23A. […] The autoradiogram was exposed for 1 hour. Data represent one of three experiments.
as §1
Immunoprecipitated KSR was incubated with reaction buffer A containing 0.5 mM ATP and a protein kinase inhibitor cocktail [20 μM PKC inhibitor peptide (UBI), 2 μM protein kinase A inhibitor peptide (UBI) and 20 μM R24571 (Sigma)] for 30 min at 22° C.

For assay [3], the system named is KSR/Raf-1 complex. The assay can be described thus: Co-immunoprecipitation of KSR and Raf-1 from treated COS-7 cells. The assay is classed as cell-based, mouse KSR (COS-7 cells). On the procedure: FIG. […] Cells were lysed with NP-40 buffer and subjected to 4 hr of immunoprecipitation with anti-Raf-1 antibody. Two controls, KSR and KSR with ceramide treatment, received protein A conjugated sepharose beads without anti-Raf-1 antibody. […] Data represent one of four similar experiments.
Cell lysates were subjected to immunoprecipitation with anti-Flag antibody. Immunoprecipitated samples were handled as in FIG. 24A except Western blot analysis was performed with anti-Raf-1 antibody. Data represent one of three similar experiments.
Anti-Raf-1 antibody conjugated beads were prepared by overnight incubation of 2 μl of anti-Raf-1 antibody (a kind gift of Dr. Debbie Morrison) with 5 mg of the protein A conjugated sepharose beads, followed by washing three times with NP-40 lysis buffer. […] Lysates (0.8 mg total protein) were then incubated for 4 hrs with anti-Raf-1 bound sepharose beads or anti-Flag conjugated agarose beads. The beads were washed vigorously 5 times, boiled in Laemmli sample buffer, and proteins were separated on 7.5% SDS-PAGE. After electrophoresis, the gel was transferred to PVDF membrane and probed with anti-Flag antibody or anti-Raf-1 antibody.

For assay [4], the system named is CAP kinase. The assay can be described thus: Phosphorylation of Raf-1 peptides by CAP kinase. In kind it is biochemical, bovine (brain).
The target in assay [5] is T1, KSR. Briefly: KSR activity toward Raf-1 peptides in vitro. The assay is classed as biochemical, mouse (KSR immunoprecipitated from COS-7 cells). Also on record: Raf-1 peptides as substrate. On the procedure: The wild type peptide contains eight potential phosphorylation sites (shown in bold). Substitution of alanines and glycines for serines and threonines generated one peptide (TTLP-peptide) containing only two potential phosphorylation sites (Thr^268,269) and another peptide (AALP-peptide) with no potential phosphorylation sites.
FIG. 28A--Flag-tagged KSR was immunoprecipitated from 0.2 mg COS-7 lysate, and assayed with TTLP- or AALP-peptides in the presence of 30 nM ceramide (Avanti) or diluent (DMSO). Background counts per minute (cpm) derived from samples incubated with the AALP-peptide which contains no phosphorylation sites were subtracted from all points. Background cpm always represented less than 25% of the untreated total.
FIG. 28B--Flag-tagged KSR immunoprecipitated from 0.2 mg COS-7 lysate was assayed with TTLP- or AALP-peptides in the presence of ceramide or diluent for 45 min as described in FIG. 7A.
FIG. 28C--Flag-tagged KSR was immunoprecipitated from 0.15 mg COS-7 lysate and assayed with TTLP- or AALP-peptides for 20 min in the presence of 30 nM of the indicated lipid second messengers as described in FIG. 28A (AA: arachidonic acid; LPA: lyso phosphatidic acid; PMA: phorbol 12-myristate 13-acetate; DAG: 1,2-diacylglycerol).
KSR-bound beads were incubated with reaction buffer B plus 10 mM MnCl2, 5 μM ATP and [γ-^32 P]ATP at 22° C. for the period of time indicated in the presence of 0.3 mM synthetic Raf-peptide or substrate peptides specific for other Ser/Thr protein kinases. […] (SEQ ID NO.3). Substitution of glycines and alanines for serines and threonines generated one peptide (termed TTLP-peptide) containing only two potential phosphorylation sites at Thr^268,269 (in bold), […] (SEQ ID NO. 24), and another peptide (termed AALP-peptide; SEQ ID No.6) with no potential phosphorylation sites, […] (SEQ ID No.25). The amino acid sequences of substrate peptides specific for other protein kinases (Joseph et al., 1993) are: […] (SEQ ID NO.26) (PKA); […] (SEQ ID NO.27) (S6 kinase); […] (SEQ ID NO.28)(CK II); […] (SEQ ID NO.29) (CaM kinase II); and […] (SEQ ID NO.30) (PKC). […] Substrate peptides for PKA and PKC were from Sigma (St. Louis, Mo.). The reaction was stopped by addition of a stop solution containing 0.5 M ATP in 90% formic acid. The beads were removed by centrifugation at 5000×g for 2 min and the supernatant was loaded on P81 Whatman filter paper. The filter was air dried and washed in 4 mM Na2 H2 P2 O7, 1 mM acetic acid for one hour. The filter was baked at 90° C. for 10 min and quantified by Cerenkov counting using a Beckman LS 5000TD scintillation counter. In some experiments, samples were separated by C18 reverse-phase chromatography on HPLC (Mathias et al., 1991) to verify the results of the filter assay. Virtually identical results were obtained with both methods.

This note sets out measurements from patent publication US6040149A, “Assay for identifying agents which act on the ceramide-activated protein kinase, kinase suppressor of ras, and methods of using said agents” (priority 1997, dated 2000).

As for `CCCCCCCCCCCCC/C=C/[C@@H](O)[C@H](CO)NC(C)=O` [C2-ceramide], in assay [1] (C2-ceramide), the “concentration of maximal effect” value was 40 µM and the “lowest effective concentration (KSR activity)” value worked out at 50 nM. For the same compound, the fold induction at 40 µM in assay [1] (COS-7, 10 min, 40 μM C2-ceramide, read-out: maximal enhancement of KSR autophosphorylating activity) was in the range of 5 to 10. Moreover, in assay [2], the “activity of immunoprecipitated KSR to phosphorylate and activate Raf-1” value is reported as “markedly enhanced”. Further, in assay [3] (50 μM C2-ceramide, anti-Raf-1 precipitation), the “co-immunoprecipitation of KSR with Raf-1” value was “significantly enhanced”. Besides, the “co-immunoprecipitation of Raf-1 with KSR” value in assay [3] (C2-ceramide, anti-Flag precipitation) is “dramatically enhanced”.
“RQRSTSTPNVHMVSTTLPVDSRMIE [wild type Raf-peptide]”: in assay [4], the “phosphorylation of Raf-1 peptide by CAP kinase” value was “phosphorylated”. In addition, the “phosphorylation of peptide by KSR” value in assay [5] was “phosphorylated to the same extent”.
